Residues, ends and D or L forms follow the SMILES beside them. *: point of attachment. Cbz = O=C(OCc1ccccc1)*; CH2F = FC*
Experiments:
Format in all cases: cell-based, human
[1] = test system: HeLa-fR cells; assay: RLuc8/fLuc bioluminescence and RLuc8:fLuc ratio in HeLa-fR cells (Dual-Glo); settings: for RLuc8:fLuc bioluminescent ratio: HeLa-fR cells treated with the stress/cell death inducer alone; for RLuc8:fLuc ratio of STS-treated cells with inhibitor/scavenger: inhibitor 1 hour before 10 μM STS for 24 hours, working concentrations of Table 7
Description: To induce cellular stress, HeLa cells were treated with Staurosporine (STS), hydrogen peroxide, or hypoxanthine and xanthine oxidase for 0 to 24 hours at concentrations indicated in Table 7. Stressed and unstressed cells were also incubated with inhibitors that target various intracellular protein degradation/modification pathways. The specific compounds/proteins that were utilized as inhibitors and the respective final working concentrations are also listed in Table 7. Inhibitors were added to cells 1-hr prior to adding inducers of cellular stress and left in the media for the duration of the treatment. Analogous controls were conducted in the absence of stress inducers.
(§1) To induce caspase dependent PCD, cells were treated with staurosporine (STS), Doxorubicin (DOX), or camptothecin (CPT) (Sigma, St. Louis, Mo.) in complete medium at indicated concentrations and time points. To induce caspase-independent PCD, cells were treated with sodium selenite (SSe, MP Biomedicals, Solon, Ohio) or resveratrol (Res, Enzo Life Sciences, Plymouth Meeting, Pa.) in complete medium at indicated concentrations and time points. In studies where allopurinol (Allo, MP Biomedicals) is used as an inhibitor, it was added at a final concentration of 100 μM to cells in complete medium for 1 hour prior to the addition of the death-inducing drugs and remained in the medium throughout the study.
(§2) Unless otherwise noted, bioluminescence assays were performed 24 hours after plating 10,000 HeLa-fR cells/well in a white-walled 96 well tissue culture plate (BD Biosciences, Franklin Lakes, N.J., USA).

[2] = test system: caspases 3 and 7; assay: Caspase-Glo 3/7 assay, HeLa-fR cells
Description: (§3) Caspase Activity: PCD was induced (as described above) 24 hours after plating 10,000 cells/well in white-walled 96 well tissue culture plates (BD Biosciences). After indicated treatment times, the Caspase 3/7-Glo Assay (Promega) was performed according to the manufacturer's protocol and bioluminescence measurements were obtained from and Infinite 200 plate reader (Tecan). All values were normalized to controls (i.e. pre-treatment values).

[3] = test system: MCF7-fR cells; assay: RLuc8:fLuc ratio in MCF7-fR cells (Dual-Glo); settings: MCF7-fR cells treated with the cell death inducer alone
Description: as §1, §2

[4] = test system: MCF7-fR cells; assay: TUNEL assay for DNA fragmentation, MCF7-fR cells; settings: increasing dosages of resveratrol, 24 hours
Description: DNA Fragmentation: PCD was induced (as described above) 24 hours after plating 300,000 cells/well in 6 well tissue culture plates (BD Biosciences). After indicated treatment times, TUNEL assays for DNA fragmentation were performed using the TUNEL/ApoBRDU assay kit (Invitrogen) according to the manufacturer's protocol. Percent DNA fragmentation was determined using flow cytometry on a Guava EasyCyte flow cytometer (Guava Technologies, Hayward, Calif.). Analysis of flow cytometry data was performed using FlowJo software (Treestar, Ashland, Oreg.).

[5] = test system: caspase 3/7; assay: Caspase-Glo 3/7 assay, MCF7-fR cells
Description: as §3

[6] = test system: intracellular H2O2; assay: Intracellular H2O2 by CM-H2DCFDA, MCF7-fR cells; settings: increasing dosages of resveratrol, 24 hours
[7] = test system: intracellular H2O2; assay: Intracellular H2O2 by CM-H2DCFDA, HeLa-fR cells; settings: STS-treated HeLa-fR cells
Description: Catalase and Allopurinol: HeLa-fR cells were plated at a density of 120,000 cells per well of a 12 well tissue culture plate (BD Biosciences). 24 hours later, the cells were incubated with 10 μM CM-H2DCFDA (Invitrogen) for 30 minutes at 37° C. Cells were then treated with PBS (pH 7.4), 50 U/mL catalase or 100 μM allopurinol for one hour. PBS (pH 7.4) or 10 μM STS was subsequently added to the cells, and all compounds remained on the cells for 24 hours. Intracellular H2O2 levels were determined by subjecting the cells to flow cytometry using a Guava EasyCyte (Guava Technologies). Analysis of flow cytometry data was accomplished using FlowJo software (Treestar).

[8] = test system: HeLa-fR cells; assay: Western blot of fLuc and RLuc8 protein, HeLa-fR cells; settings: STS-treated cells pretreated with the inhibitor/scavenger
Description: Following indicated culture conditions, HeLa-fR cells were washed 3 times with 1×PBS (pH7.4). Proteins were extracted using RIPA extraction buffer (50 mM Tris HCL, pH 7.4, 1% Triton X-100, 0.25% Na-deoxycholate, 150 mM NaCl, 1 mM EDTA and a Complete Mini Protease Inhibitor Cocktail Tablet (Roche)) at 4° C. for 30 minutes with constant agitation. Total protein concentrations were measured using a BCA assay (Pierce, Rockford, Ill., USA). […] Proteins separated by electrophoresis were transferred to nitrocellulose membranes in 1× Transfer Buffer (Bio-Rad) at 15V for 30 minutes. Membranes were blocked in Blocking Buffer for Fluorescent Western Blotting (Rockland Immunochemicals, Gilbertsville, Pa., USA) for 60 minutes. The membranes were incubated with anti-fLuc (Sigma), anti-rLuc (Millipore, Billerica, Mass.) or anti-β-actin (Abcam, Cambridge, Mass.) primary antibodies in blocking buffer overnight. […] The fluorescent signal from the membranes was imaged using the Odyssey Infrared Imaging System (Li-Cor Biosciences, Lincoln, Nebr., USA).

CC[C@@]1(O)C(=O)OCc2c1cc1n(c2=O)Cc2cc3ccccc3nc2-1 [camptothecin]
RLuc8:fLuc bioluminescent ratio [1]: dose- and time-dependent increase
caspase activity / caspase dependence of cell death [2]: caspase-dependent

COc1cccc2c1C(=O)c1c(O)c3c(c(O)c1C2=O)C[C@@](O)(C(=O)CO)C[C@@H]3O[C@H]1C[C@H](N)[C@H](O)[C@H](C)O1 [doxorubicin, Doxorubicin]
RLuc8:fLuc bioluminescent ratio [1]: dose- and time-dependent increase
caspase activity / caspase dependence of cell death [2]: caspase-dependent

CC[C@H](C)[C@H](NC(=O)[C@H]([C@@H](C)CC)N(C)C(C)=O)C(=O)N[C@H](C(=O)N[C@@H](CC(C)C)C(=O)[C@@]1(C)CO1)[C@@H](C)O [epoxomicin]
RLuc8:fLuc ratio of STS-treated cells with inhibitor/scavenger [1]: increase in the RLuc8:fLuc ratio

CC(=O)N[C@@H](CSC(=O)[C@]1([C@@H](O)C(C)C)NC(=O)[C@H](C)[C@@H]1O)C(=O)O [lactacystin]
RLuc8:fLuc ratio of STS-treated cells with inhibitor/scavenger [1]: increase in the RLuc8:fLuc ratio

OC[C@@H](O)[C@@H](O)[C@H](O)[C@H](O)CO [mannitol]
RLuc8:fLuc ratio of STS-treated cells with inhibitor/scavenger [1]: did not reduce the Rluc8:fLuc ratio

Oc1ccc(C=Cc2cc(O)cc(O)c2)cc1 [resveratrol]
RLuc8:fLuc ratio [3]: increased
DNA fragmentation levels [4]: increased
caspase 3/7 activity / caspase dependence of cell death [5]: remained inactive
intracellular H2O2 [6]: increased

COC(=O)C[C@H](NC(=O)[C@H](C)NC(=O)[C@@H](NC(=O)OCc1ccccc1)C(C)C)C(=O)CF [z-vad-fmk] (Cbz-Val-Ala-Asp(OMe)-CH2F)
RLuc8:fLuc ratio of STS-treated cells with inhibitor/scavenger [1]: none of these inhibitors significantly affected

MnTMPyP
RLuc8:fLuc ratio of STS-treated cells with inhibitor/scavenger [1]: none of the superoxide scavengers significantly reduced

Pepstatin A
RLuc8:fLuc ratio of STS-treated cells with inhibitor/scavenger [1]: none of these inhibitors significantly affected

catalase
RLuc8:fLuc ratio of STS-treated cells with inhibitor/scavenger [1]: significant reduction (p<0.01)
RLuc8:fLuc ratio, increasing doses of inhibitor/scavenger ([1]; pretreated 1 hour prior to 10 μM STS, 24 hr): reducing the Rluc8:fLuc ratio, in a dose-dependent manner
intracellular H2O2 (CM-H2DCFDA fluorescence) with inhibitor/scavenger [7]: decrease in CM-H2DCFDA fluorescence
fLuc protein level vs STS without inhibitor [8]: higher levels of fLuc protein

From patent US20110081298A1, “RATIOMETRIC BIOLUMINESCENT SENSOR FOR IMAGINING OXIDATIVE STRESS” (priority 2009, published 2011)
